Laboratory results from patent publication US20110195128A1, “TREATING OR PREVENTING GOUT” (priority 2008, published 2011).

What was measured:
[1] = cited from earlier work
urate peritonitis model = assay: Murine urate peritonitis model, total cellular influx; format: in vivo, CD1 mice; conditions: mice fed for a week before i.p. 3 mg MSU crystals; lavage after four hours; GMP 0.05-0.5 g per kg in drinking water; G600 precursor 12.5-100% of total fat in diet
Protocol: Adult male CD1 mice (Vernon Jansen Unit, University of Auckland) were housed in conventional facilities with temperature control and 12 hour light/dark cycles. All protocols involving live animals were subjected to ethical review and a range of welfare score sheets and action plans were used to monitor and minimize the impact of the study on the animals. Mice were fed milk extracts for a week prior to induction of peritonitis. At least eight mice were used for each experimental condition. GMP was dissolved in drinking water at 0.05, 0.1, 0.25 and 0.5 g per kg mouse. The G600™ milk fat extract precursor (Batch 2, freeze dried, no added lactose) was incorporated into rodent chow at 12.5, 25, 50 and 100% of total fat in diet.
The murine urate peritonitis protocol was based on the model described by Getting et al (1997). Adult male CD1 mice weighing 22-28 g were selected for the urate peritonitis model. Mice were anaesthetized using urethane. Peritonitis was induced by intraperitoneal injection of 3 mg MSU crystals resuspended in 250 μl PBS. The body temperature of anaesthetized mice was monitored and maintained at 37° C. using a heat pad, and hydration was maintained by subcutaneous injection of 0.9% NaCl (Normal Saline) at a volume of […] body weight two hours after initial treatments and every hour thereafter. […]

IL-1β [2] = assay: THP-1 cell assay analysed by ELISA, MSU crystal-stimulated IL-1β release; format: cell-based; conditions: THP-1 cells
Protocol: (§1) THP-1 cells were cultured in RPMI with 10% FCS, penicillin, streptomycin, glutamine and pyruvate. At day −1, 1.5×10^6 THP-1 cells were plated in 24 well plates. These cells were cultured in the presence or absence of 5 μM phorbol 12-myristate 13-acetate (PMA) for three hours. PMA is required for NALP-3 inflammasome activation and IL-1β production in response to MSU crystals. On day 0, medium was replaced in all wells. Cells were then pre-incubated with vehicle control, test substance at three concentrations, or diclofenac control (10 μg/ml) for 4 hours. MSU crystals were then added (0.5 mg/mL) Supernatants were harvested for ELISA after 16 hours. ELISA was conducted to determine inhibition of IL-1β expression. It has been reported that this cytokine is a pivotal regulator of the inflammatory response to MSU crystals (Chen et al 2006 and Martinon et al 2006). Inhibition of IL-8 expression was also determined.
(§2) A mean change in cytokine expression from cells treated with control vehicle pooled data from all experiments (10 μg/ml). Values represent mean (standard error) from at least three experiments in which cytokine release from wells treated with the highest concentration of milk extract has been normalized to vehicle treated wells.
(§3) The results are shown in Table 2 below and in FIGS. 1 and 2. Table 3 contrasts the result for GMP when the MSU was replaced with a different antigen, LPS. […]

IL-8 = assay: THP-1 cell assay analysed by ELISA, MSU crystal-stimulated IL-8 release; format: cell-based; conditions: THP-1 cells, PMA, 4 h pre-incubation, MSU crystals 0.5 mg/mL, supernatant after 16 h; highest concentration of test substance; mean of at least three experiments; * p<0.05 vs vehicle
Protocol: as §1, §2, §3

IL-1β [3] = assay: THP-1 cell assay analysed by ELISA, MSU replaced with LPS, IL-1β production; format: cell-based; conditions: THP-1 cells, normalized to vehicle
Protocol: as §1
The results are shown in Table 2 below and in FIGS. 1 and 2. Table 3 contrasts the result for GMP when the MSU was replaced with a different antigen, LPS. The casein hydrolysate tested was produced by extensively hydrolysing casein (to a degree of hydrolysis of 33%) using the enzymes pancreatin and corolase. […]

IL-1β gene expression = assay: THP-1 cell assay analysed by RT-PCR, IL-1β gene expression; format: cell-based; conditions: THP-1 cells, treatment as in Example 1 (FIG. 5)
Source text: THP-1 assays were used to study IL-1β and IL-8 gene expression by RT-PCR, using the same treatment protocols as described for the THP-1 ELISA assay in Example 1 above and the RT-PCR protocol described in Dalbeth et al, 2008.

Compound: COc1cc2c(c(OC)c1OC)-c1ccc(OC)c(=O)cc1[C@@H](NC(C)=O)CC2 [colchicine, Colchicine]
- adverse effects ([1]; all patients, within 24 hours of taking this medication): developed diarrhoea and/or vomiting
- reduction in pain in joints ([1]; gout patients, within 48 hours): 50%

Compound: Glycomacropeptide [GMP]
- total cellular influx in the urate peritonitis model (urate peritonitis model): significant inhibition
- IL-1β (cytokine release normalized to vehicle treated wells) (IL-1β [2]; PMA, 4 h pre-incubation, MSU crystals 0.5 mg/mL, supernatant after 16 h, highest concentration of test substance, mean of at least three experiments, * p<0.05 vs vehicle): 0.72*
- MSU crystal-stimulated IL-1β production (IL-1β [2]; normalized to vehicle, * p<0.05): 0.72*
- IL-8 (cytokine release normalized to vehicle treated wells) (IL-8): 1.22
- LPS-stimulated IL-1β production (IL-1β [3]): 0.94
- IL-1β gene expression (IL-1β gene expression): inhibits
